# Results from US20050232896A1, “Cd137 as a proliferation factor for hematopoietic stem cells” (priority 2001, published 2005).
# Tests used:
# Bone marrow cells = assay: In vivo reconstitution after Alkeran, bone marrow composition; parameters: species or system NMRI mice; settings: Alkeran experiment, day 21, average of three mice
# Method: (§1) In the next experiment NMRI mice were treated with Alkeran, a cytotoxic drug regularly used for human cancer therapy. Alkeran was given i.p. on days 1, 3 and 5. Mice received 100 μg of CD137-Fc immobilized on protein A or equivalent amounts of immobilized Fc control protein. Three mice were used per group. The relative composition of the bone marrow cells (Table 3) and the absolute number of cells in the peripheral blood (Table 4) were determined after 21 days.
# [1] = system: cells in the peripheral blood; assay: In vivo reconstitution after Alkeran, absolute cell numbers in peripheral blood; parameters: species or system NMRI mice; settings: after 21 days, average of three mice
# Method: as §1
# [2] = system: myeloid lineage, human CD34+ progenitors; assay: CELISA lineage assay, myeloid lineage (CD11b); type: cell-based; settings: growth factors present
# Method: (§2) The effects of CD137 on the different hematopoietic lineages were evaluated using a cell based immunoassay, which quantifies expression of lineage-specific markers (CELISA, BioWhittaker, Walkersville, Md., USA).
# (§3) Progenitors for the myeloid and erythroid lineages were normal human CD34+ cells, which had been isolated from the bone marrow of healthy volunteers by positive selection using the “Direct CD34 Progenitor Kit” (Miltenyi, Bergisch Gladbach, Germany). Progenitors for the megakaryocyte lineage were normal human CD34+ cells, which had been isolated from the peripheral blood of healthy G-CSF-treated volunteers.
# 96-well polystyrene plates were precoated with four dilutions of CD137-Fc or Fc control protein at 4° C. overnight or with the dilution buffer PBS. […]
# In this example, the influence of growth factor concentrations and potential additive or synergistic effects of these growth factors with CD137 were analysed in more detail. […]
# Differentiation was assessed per CELISA (BioWhittaker), measuring the expression of the myeloid-specific protein CD11b. Proliferation was determined using the ViaLight system (BioWhittaker), which measures the amount of ATP in the culture. […]
# [3] = system: erythroid lineage, human CD34+ progenitors; assay: CELISA lineage assay, erythroid lineage (glycophorin A); type: cell-based; settings: growth factors present
# Method: as §2, §3
# (§4) 96-well polystyrene plates were precoated with four dilutions of CD137-Fc or Fc control protein at 4° C. overnight or with the dilution buffer PBS. The following additional controls were included in the experiment: no addition; Camptothecin, a cytotoxic compound, at 0.005 μM (condition 1) and at 0.5 μM (condition 2); stem Cell Factor (SCF) at a concentration of 125 ng/ml. […]
# [4] = system: megakaryocyte lineage, human CD34+ progenitors; assay: CELISA lineage assay, megakaryocyte lineage (CD41a); type: cell-based; settings: growth factors present
# Method: as §2, §3, §4
# [5] = system: bone marrow cell population; assay: In vivo reconstitution of the hematopoietic system, protein A damage, bone marrow composition; parameters: species or system NMRI mice; settings: day 21, average of three mice
# From the text: CD137 needs to be immobilized onto a carrier or crosslinked to be functional according to the invention. Protein A was chosen as a carrier for in vivo studies, as it has been effective in crosslinking CD137-Fc in the experiment described in Example 3. CD137-Fc or Fc control protein were immobilized on protein A and injected into NMRI mice. Besides immobilizing CD137-Fe or Fc, protein A has the additional effect of being toxic for cells of the hematopoietic system. This latter activity of protein A exerts a damaging effect on the hematopoietic system of mice as does chemotherapy.
# Three mice per group were used. Each mouse received 100 μg of immobilized CD137-Fc or an equimolar amount of immobilized Fc or protein A alone. Mice were killed after 3 weeks and the bone marrow was isolated from the femurs and analysed (Table 2).
compound,measurement,setting,value
N[C@@H](Cc1ccc(N(CCCl)CCCl)cc1)C(=O)O [Alkeran],R1,Bone marrow cells,60.21 Percentage of total cells
same,R3,Bone marrow cells,0.66 Percentage of total cells
same,R4,Bone marrow cells,2.28 Percentage of total cells
same,Total number of leukocytes in the peripheral blood,[1],830 per μl
same,Total number of thrombocytes in the peripheral blood,[1],581.000 per μl
CC[C@@]1(O)C(=O)OCc2c1cc1n(c2=O)Cc2cc3ccccc3nc2-1 [Camptothecin],"growth inhibition, myeloid lineage",[2]; 0.005 uM,minimal growth inhibition
same,"growth inhibition, myeloid lineage",[2]; 0.05 uM,inhibited growth to a greater extent
same,"growth inhibition, erythroid lineage",[3]; 0.005 uM,minimal growth inhibition
same,"growth inhibition, erythroid lineage",[3]; 0.05 uM,inhibited growth to a greater extent
same,"growth inhibition, megakaryocyte lineage",[4]; 0.005 uM,minimal growth inhibition
same,"growth inhibition, megakaryocyte lineage",[4]; 0.05 uM,inhibited growth to a greater extent
Protein A: carrier for crosslinking CD137-Fc; toxic for cells of the hematopoietic system,R1 (91% erythroid),[5],69.18 Percentage of total cells
same,"R3 (49% undifferentiated blasts, 25% lymphoblasts, 18% basophil erythroblasts)",[5],1.81 Percentage of total cells
same,"R4 (50% undifferentiated blasts, 30% myeloid mainly und. precursors, 20% erythroid)",[5],1.97 Percentage of total cells
same,R5 (91% granulocytes),[5],1.12 Percentage of total cells
same,"R6 (74% monocytes, 20% myeloid precursors)",[5],0.63 Percentage of total cells
same,R5 (91% granulocytes),[5]; listed as protein A,reduced drastically
same,"R6 (74% monocytes, 20% myeloid precursors)",[5]; listed as protein A,reduced drastically
